Test results: patent publication US11865108B2, “Nitrogen containing bicyclic compounds” (Wockhardt Limited, priority 2019, dated 2024)
Converted amounts (≈) assume the structure as drawn.

Key:
[1] = test system: K. pneumoniae B 77; assay: MIC alone and in combination, K. pneumoniae B 77; type: cell-based; details: Klebsiella pneumoniae, B77, 18 h, beta lactamase NDM, ESBL, alone or in combination as labelled
Description: (§1) The biological activity of representative compounds according to the invention against various bacterial strains was investigated. In a typical study, overnight grown bacterial cultures were diluted appropriately and inoculated on the agar media containing doubling dilutions of the test compounds. Observations for growth or no growth was performed after 16-20 hours of incubation at 35±2° C. in the ambient air. The overall procedure was performed as per Clinical and Laboratory Standards Institute (CLSI) recommendations, (Clinical and Laboratory Standards Institute (CLSI), Performance Standards for Antimicrobial Susceptibility Testing, 20th Informational Supplement, M07-A9, Volume 32, No. 2, 2012). Molten Mueller Hinton Agar (MHA) (BD, USA) containing serial dilutions of each antibacterial agent were poured on to the plates and allowed to solidify. Appropriate suspensions from the freshly grown cultures were prepared in normal saline so that about 10^4 CFU/spot of the organism was delivered on to the drug containing agar plates using automated multipoint inoculator (Mast, UK). The plates were incubated in Biochemical oxygen demand (BOD) incubator at 37° C. for 18 hours and then examined for growth. […] The Table 2 depicts the antibacterial activity profile of compounds according to present invention against various multidrug resistant bacterial strains.
(§2) The antibacterial activity of compounds according to the invention was also investigated in combination with several antibacterial agents. For example, antibacterial activity of the representative compounds of Formula (I) (Example 1 and Example 2) in combination with Ceftazidime and Cefixime are summarized in Table 3.

[2] = test system: K. pneumoniae B 88; assay: MIC alone and in combination, K. pneumoniae B 88; type: cell-based; details: Klebsiella pneumoniae, B88, 18 h, beta lactamase NDM, ESBL, alone or in combination as labelled
Description: as §1, §2

[3] = test system: K. pneumoniae NCTC 13443; assay: MIC alone and in combination, K. pneumoniae NCTC 13443; type: cell-based; details: Klebsiella pneumoniae, NCTC13443, 18 h, beta lactamase NDM, ESBL, alone or in combination as labelled
Description: as §1, §2

[4] = test system: K. pneumoniae S 465; assay: MIC alone and in combination, K. pneumoniae S 465; type: cell-based; details: Klebsiella pneumoniae, S465, 18 h, beta lactamase OXA-181, ESBL, alone or in combination as labelled
Description: as §1, §2

[5] = test system: K. pneumoniae NCTC 13439; assay: MIC alone and in combination, K. pneumoniae NCTC 13439; type: cell-based; details: Klebsiella pneumoniae, NCTC13439, 18 h, beta lactamase VIM-1, alone or in combination as labelled
Description: as §1, §2

[6] = test system: Multi Drug Resistant (MDR) Gram negative strains; assay: Antibacterial activity alone and in combination, summary of Table 3; type: cell-based, K. pneumoniae; details: for antibacterial activity when used alone: strains of Table 3; for antibacterial effect in combination: in combination with Ceftazidime and Cefixime, highly resistant bacterial strains
Description: as §1, §2

[7] = test system: KP ATCC 700603; assay: Agar dilution MIC, KP ATCC 700603; type: cell-based, K. pneumoniae; details: Klebsiella pneumoniae, ATCC700603
Description: as §1

[8] = test system: E. Coli 13351; assay: Agar dilution MIC, E. Coli 13351; type: cell-based; details: Escherichia coli
Description: as §1

[9] = test system: E. Coli 13352; assay: Agar dilution MIC, E. Coli 13352; type: cell-based; details: Escherichia coli
Description: as §1

[10] = test system: E. Coli 13353; assay: Agar dilution MIC, E. Coli 13353; type: cell-based; details: Escherichia coli
Description: as §1

[11] = test system: E. Coli M 36; assay: Agar dilution MIC, E. Coli M 36; type: cell-based; details: Escherichia coli
Description: as §1

[12] = test system: E. Coli 7 MP; assay: Agar dilution MIC, E. Coli 7 MP; type: cell-based; details: Escherichia coli
Description: as §1

[13] = test system: E. Coli M 49; assay: Agar dilution MIC, E. Coli M 49; type: cell-based; details: Escherichia coli
Description: as §1

[14] = test system: E. Coli M 50; assay: Agar dilution MIC, E. Coli M 50; type: cell-based; details: Escherichia coli
Description: as §1

[15] = test system: E. Coli M 138; assay: Agar dilution MIC, E. Coli M 138; type: cell-based; details: Escherichia coli
Description: as §1

[16] = test system: E. Coli S 18; assay: Agar dilution MIC, E. Coli S 18; type: cell-based; details: Escherichia coli
Description: as §1

[17] = test system: K. pneumoniae H 521; assay: Agar dilution MIC, K. pneumoniae H 521; type: cell-based; details: Klebsiella pneumoniae, H521
Description: as §1

[18] = test system: K. pneumoniae H 522; assay: Agar dilution MIC, K. pneumoniae H 522; type: cell-based; details: Klebsiella pneumoniae, H522
Description: as §1

[19] = test system: K. pneumoniae H 523; assay: Agar dilution MIC, K. pneumoniae H 523; type: cell-based; details: Klebsiella pneumoniae, H523
Description: as §1

[20] = test system: K. pneumoniae H 525; assay: Agar dilution MIC, K. pneumoniae H 525; type: cell-based; details: Klebsiella pneumoniae, H525
Description: as §1

Structure (SMILES)	MIC [1] [µg/mL]	MIC [2] [µg/mL]	MIC [3] [µg/mL]	MIC [4] [µg/mL]	MIC [5] [µg/mL]	MIC [7] [µg/mL]	MIC [8] [µg/mL]	MIC [9] [µg/mL]	MIC [10] [µg/mL]	MIC [11] [µg/mL]	MIC [12] [µg/mL]	MIC [13] [µg/mL]	MIC [14] [µg/mL]	MIC [15] [µg/mL]	MIC [16] [µg/mL]	MIC [17] [µg/mL]	MIC [18] [µg/mL]	MIC [19] [µg/mL]	MIC [20] [µg/mL]	further results
C=CC1=C(C(=O)O)N2C(=O)[C@@H](NC(=O)/C(=N\OCC(=O)O)c3csc(N)n3)[C@H]2SC1 [Cefixime, reference compound]	> 32	> 32	> 32	> 32	> 32															
CC(C)(O/N=C(\C(=O)N[C@@H]1C(=O)N2C(C(=O)[O-])=C(C[n+]3ccccc3)CS[C@H]12)c1csc(N)n1)C(=O)O [Ceftazidime, reference compound]	> 32	> 32	> 32	> 32	> 32															antibacterial activity when used alone [6]: did not exhibit significant antibacterial activity
C[C@H]1CN[C@H](CONC(=O)[C@@H]2CC[C@@H]3CN2C(=O)N3OS(=O)(=O)O)C1 [Example 1, (2S,5R)—N-{[(2S,4R)-4-methylpyrrolidin-2-yl]methyloxy}-7-oxo-6-(sulfooxy)-1,6-diazabicyclo[3.2.1]octane-2-carboxamide]	> 32	> 32	> 32	> 32	> 32	> 32	1 (≈ 2.64 µM)	1 (≈ 2.64 µM)	0.5 (≈ 1.32 µM)	0.5 (≈ 1.32 µM)	1 (≈ 2.64 µM)	4 (≈ 10.6 µM)	0.5 (≈ 1.32 µM)	0.5 (≈ 1.32 µM)	1 (≈ 2.64 µM)	1 (≈ 2.64 µM)	1 (≈ 2.64 µM)	0.5 (≈ 1.32 µM)	0.5 (≈ 1.32 µM)	antibacterial effect in combination [6]: unusual and unexpected synergistic antibacterial effect; antibacterial activity when used alone [6]: did not exhibit significant antibacterial activity; melting point: 172 to 174 °C (dec.)
C[C@@H]1CN[C@H](CONC(=O)[C@@H]2CC[C@@H]3CN2C(=O)N3OS(=O)(=O)O)C1 [Example 2, (2S,5R)—N-{[(2S,4S)-4-Methyl-pyrrolidin-2-yl]methyloxy}-7-oxo-6-(sulfooxy)-1,6-diazabicyclo[3.2.1]octane-2-carboxamide]	> 32	> 32	> 32	> 32	> 32	> 32	1 (≈ 2.64 µM)	1 (≈ 2.64 µM)	0.5 (≈ 1.32 µM)	0.5 (≈ 1.32 µM)	2 (≈ 5.29 µM)	4 (≈ 10.6 µM)	1 (≈ 2.64 µM)	1 (≈ 2.64 µM)	1 (≈ 2.64 µM)	2 (≈ 5.29 µM)	1 (≈ 2.64 µM)	1 (≈ 2.64 µM)	1 (≈ 2.64 µM)	antibacterial effect in combination [6]: unusual and unexpected synergistic antibacterial effect; antibacterial activity when used alone [6]: did not exhibit significant antibacterial activity
C[C@@H]1CN[C@@H](CONC(=O)[C@@H]2CC[C@@H]3CN2C(=O)N3OS(=O)(=O)O)C1 [Example 3, (2S,5R)—N-{[(2R,4S)-4-Methyl-pyrrolidin-2-yl]methyloxy}-7-oxo-6-(sulfooxy)-1,6-diazabicyclo[3.2.1]octane-2-carboxamide]						> 32	1 (≈ 2.64 µM)	1 (≈ 2.64 µM)	0.5 (≈ 1.32 µM)	0.5 (≈ 1.32 µM)	2 (≈ 5.29 µM)	4 (≈ 10.6 µM)	0.5 (≈ 1.32 µM)	0.5 (≈ 1.32 µM)	1 (≈ 2.64 µM)	1 (≈ 2.64 µM)	1 (≈ 2.64 µM)	0.5 (≈ 1.32 µM)	0.5 (≈ 1.32 µM)	
C[C@H]1CN[C@@H](CONC(=O)[C@@H]2CC[C@@H]3CN2C(=O)N3OS(=O)(=O)O)C1 [Example 4, (2S,5R)—N-{[(2R,4R)-4-Methyl-pyrrolidin-2-yl]methyloxy}-7-oxo-6-(sulfooxy)-1,6-diazabicyclo[3.2.1]octane-2-carboxamide]						> 32	1 (≈ 2.64 µM)	2 (≈ 5.29 µM)	1 (≈ 2.64 µM)	0.5 (≈ 1.32 µM)	2 (≈ 5.29 µM)	4 (≈ 10.6 µM)	1 (≈ 2.64 µM)	1 (≈ 2.64 µM)	1 (≈ 2.64 µM)	2 (≈ 5.29 µM)	2 (≈ 5.29 µM)	2 (≈ 5.29 µM)	2 (≈ 5.29 µM)	
O=C(NOC[C@@H]1C[C@@H](CO)CN1)[C@@H]1CC[C@@H]2CN1C(=O)N2OS(=O)(=O)O [Example 5]						> 32	1 (≈ 2.54 µM)	2 (≈ 5.07 µM)	1 (≈ 2.54 µM)	1 (≈ 2.54 µM)	2 (≈ 5.07 µM)	4 (≈ 10.1 µM)	1 (≈ 2.54 µM)	1 (≈ 2.54 µM)	1 (≈ 2.54 µM)	1 (≈ 2.54 µM)	1 (≈ 2.54 µM)	1 (≈ 2.54 µM)	1 (≈ 2.54 µM)	
O=C(NOC[C@@H]1C[C@H](CO)CN1)[C@@H]1CC[C@@H]2CN1C(=O)N2OS(=O)(=O)O [Example 6]						> 32	1 (≈ 2.54 µM)	2 (≈ 5.07 µM)	1 (≈ 2.54 µM)	1 (≈ 2.54 µM)	2 (≈ 5.07 µM)	4 (≈ 10.1 µM)	1 (≈ 2.54 µM)	1 (≈ 2.54 µM)	1 (≈ 2.54 µM)	2 (≈ 5.07 µM)	2 (≈ 5.07 µM)	2 (≈ 5.07 µM)	1 (≈ 2.54 µM)	
O=C(NOC[C@H]1C[C@H](CO)CN1)[C@@H]1CC[C@@H]2CN1C(=O)N2OS(=O)(=O)O [Example 7]						> 32	1 (≈ 2.54 µM)	2 (≈ 5.07 µM)	1 (≈ 2.54 µM)	1 (≈ 2.54 µM)	2 (≈ 5.07 µM)	4 (≈ 10.1 µM)	1 (≈ 2.54 µM)	1 (≈ 2.54 µM)	1 (≈ 2.54 µM)	2 (≈ 5.07 µM)	2 (≈ 5.07 µM)	1 (≈ 2.54 µM)	1 (≈ 2.54 µM)	
O=C(NOC[C@H]1C[C@@H](CO)CN1)[C@@H]1CC[C@@H]2CN1C(=O)N2OS(=O)(=O)O [Example 8]						> 32	2 (≈ 5.07 µM)	4 (≈ 10.1 µM)	1 (≈ 2.54 µM)	1 (≈ 2.54 µM)	4 (≈ 10.1 µM)	4 (≈ 10.1 µM)	1 (≈ 2.54 µM)	1 (≈ 2.54 µM)	2 (≈ 5.07 µM)	4 (≈ 10.1 µM)	8 (≈ 20.3 µM)	1 (≈ 2.54 µM)	1 (≈ 2.54 µM)	
NC[C@H]1CN[C@H](CONC(=O)[C@@H]2CC[C@@H]3CN2C(=O)N3OS(=O)(=O)O)C1 [Example 9]						> 32	4 (≈ 10.2 µM)	4 (≈ 10.2 µM)	2 (≈ 5.08 µM)	2 (≈ 5.08 µM)	8 (≈ 20.3 µM)	4 (≈ 10.2 µM)	2 (≈ 5.08 µM)	4 (≈ 10.2 µM)	2 (≈ 5.08 µM)	4 (≈ 10.2 µM)	4 (≈ 10.2 µM)	2 (≈ 5.08 µM)	2 (≈ 5.08 µM)	
O=C(NOC[C@@H]1C[C@@H](CF)CN1)[C@@H]1CC[C@@H]2CN1C(=O)N2OS(=O)(=O)O [Example 10]						> 32	1 (≈ 2.52 µM)	2 (≈ 5.05 µM)	1 (≈ 2.52 µM)	1 (≈ 2.52 µM)	2 (≈ 5.05 µM)	4 (≈ 10.1 µM)	1 (≈ 2.52 µM)	1 (≈ 2.52 µM)	1 (≈ 2.52 µM)	2 (≈ 5.05 µM)	2 (≈ 5.05 µM)	2 (≈ 5.05 µM)	2 (≈ 5.05 µM)	
